Results published in US8809368B2, “Compounds affecting gap junction activity” (Kansas State University Research Foundation, priority 2006, dated 2014).
Converted amounts (≈) assume the structure as drawn. “And” between values parts separate entries of the source, which are not always exact repeats. Equal values may be shown once.

Legend:
[1] = test system: MDA-MB-453 human breast cancer cells; assay: Soft agar colony growth, MDA-MB-453 cells; assay type: cell-based; settings: for effect on breast cancer cell colony growth: Table 2
Protocol: FIG. 3(A) MDA-MB-453 and (B) T47D human breast cancer cells were treated with 10 μM of various quinolines for 7 days. Base agar plates were prepared containing 0.8% agar and 0.4% agar in Ham's F12. Cells (5×10^4 cells/33 mm well) were suspended in 100 μl of Ham's F12 with 0.4% agar and plated. These plates were maintained at 37° C. for 7 days and examined for the presence of colonies. Individual colonies of 40 μm or greater were examined. […] However, PQ3 caused a 2.3-fold increase in colony growth in MDA-MB-453 cells and PQ2 caused a 2.6-fold increase in T47D colony growth compared to DMSO. FIGS. 7 and 8 show MDA-MB-453 and T47D colony growth for various concentrations of PQ1 and SA tested for 7 days. The procedures are generally as described above. The cell colony growth decreased using 10 and 100 nM PQ1 for both cell types. Colony Growth Assay: T47D human breast cancer cells were treated with PQ1. Base agar plates were prepared containing 0.8% agar and 0.4% agar in Ham's F12. Cells (5×10^4 cells/33 mm2 well) were suspended in 100 μl of Ham's F12 with 0.4% agar and plated. These plates were maintained at 37° C. for 7 days and examined for the presence of colonies. Individual colonies of 40 um or greater were examined.

[2] = test system: MDA-MB-453 cells; assay: Gap junction activity (GJIC), flow cytometry of dye coupling, MDA-MB-453 cells; assay type: cell-based, human; settings: for effect on gap junction intercellular communication: Table 1
Protocol: FIG. 4(A) MDA-MB-453 and (B) T47D cells were treated with low (500 nM) and high (10 μM) concentrations of PQs for 24 hours. Monolayers of acceptor cell population were grown on 25-cm flasks in the presence of Vibrant DiD. Vybrant DiD in acceptor cells is not able to pass through the gap junctions because of its hydrophobic property. Single cell suspensions of donor treated cells were prepared, labeled with 0.05 μg/ml calcein-AM, incubated at 37 C for 5 minutes. Quantification of dye coupling between the donor and acceptor cells was assessed by dual-excitation flow cytometry. […] Cells treated with 10 μM PQ3 have approximately 40-50% decrease in gap junction activity compared control or DMSO.

[3] = test system: HT29; assay: Gap junction intercellular communication, HT29 colon cancer cells; assay type: cell-based; settings: Table 3
[4] = test system: SW620 colon cancer cells; assay: Gap junction activity, SW620 colon cancer cells; assay type: cell-based
Protocol: However, PQ3 has an opposite effect on mammary cancer cell lines. […] A summary of PQ-mediated GJIC activity and colony growth in breast and colon cancer cells is presented in Tables 1, 2, and 3, as well as FIGS. 10-13. In FIG. 10, SW620 cells were dosed for 24 hours with PQ1 at 100, 200, 300, and 500 nM. The gap junction activity was measured as a percent of control, as previously described. It was seen that all concentrations on PQ1 increased the gap junction activity in SW620 colon cancer cells as compared to the control. In FIG. 11, the effect of PQ1 on the expression of PKCγ was studied at concentrations of 100, 200, 300 and 500 nM PQ1 for 24 hours. It is seen in FIG. 11 that PQ1 has no effect on the expression of PKCγ at the levels tested. In FIGS. 12 and 13, the effect of PQ1 on the colony growth of SW620 colon cancer cells was measured with 1-100 nM PQ1 (FIG. 12) and 10 uM PQ1 (FIG. 13).

[5] = test system: Trypanosoma brucei; assay: Anti-trypanosomal activity, inhibition of T. brucei growth (ATP-bioluminescence luciferase assay); assay type: cell-based; settings: read-out: IC50 against Trypanosoma brucei
Protocol: The antiparasitic activities of exemplary compounds described here was studied using the anti-trypanosomal activity protocol described in: Rapp M, et al. J Med Chem 2006; 49:2096-102. […] FIG. 1 summarizes the compound inhibition of T. brucei growth. It is seen that compounds of the invention are useful in inhibiting T. brucei growth.
Culturing of Parasites. The bloodstream form of Trypanosoma brucei 427 strain was maintained under the standard cell culture conditions (37° C., 5% CO2). The parasites were grown in complete HMI-9 medium containing 10% FBS, 10% Serum Plus and 1× Penicillin/Streptomycin. (Angew. Chem. Int. Ed. Engl. 2003, 42, 5274-5293).
Luciferase Assay. Luciferase assay was used to measure ATP-bioluminescence in T. brucei cultured in 96-well plates at 37° C. for 48 hours. Parasites were diluted to 1.0×10^5 cells/mL in complete HMI-9 medium. One hundred microliters (100 μL) of the diluted parasites were aliquoted into sterile 96-well flat white opaque culture plates (Greiner). Each compound was serially diluted from 10 μM to 0.1 μM in DMSO and then mixed in the appropriate wells containing parasites. The treated parasites were then incubated for 48 hours at 37° C. with 5% CO2 before monitoring viability. To measure the viability of the parasites after treatment with each compound, the parasites were lysed in the wells by adding 100 μL of CellTiter-Glo™ (Promega). After lysis, the ATP bioluminescence of the 96-well plates was measured with a SpectraFluor Plus multidetection plate reader (Tecan).

[6] = test system: MCF-7; assay: Gap junction intercellular communication, MCF-7 cells; assay type: cell-based, human; settings: Table 1

SMILES	effect on breast cancer cell colony growth [1]	decrease in gap junction activity (GJIC) ([2]; 10 μM, 24 hours, compared to control or DMSO)	effect on gap junction intercellular communication ([2]; MDA-MB-453, concentration not given)	effect on gap junction intercellular communication [3]	effect on gap junction intercellular communication ([4]; Table 3, 500 nM)	IC50 [5]	effect on gap junction intercellular communication [6]	colony growth attenuation ([1]; 10 μM, 7 days, compared to control)	cell colony growth ([1]; 10 and 100 nM, 7 days)	increase of gap junction activity ([2]; MDA-MB-453, 500 nM, 24 hours, compared to control)	increase in GJIC ([2]; MDA-MB-453, FIG. 4, 24 hours)	effect on gap junction intercellular communication ([2]; MDA-MB-453, 500 nM)	gap junction activity as compared to the control ([4]; 100, 200, 300 and 500 nM, 24 hours)	effect on gap junction intercellular communication ([4]; Table 3, 300 nM)
COc1cc(N)c2nccc(C)c2c1Oc1cccc(C(F)(F)F)c1 [PQ3, 8-Amino-6-methoxy-4-methyl-5-(3-trifluoromethylphenyloxy)quinoline]	Increase	40-50% and 50%	Decrease	Increase	Increase	1.08 µg/mL (≈ 3.11 µM)	Decrease							
COc1cc(NCCCN)c2nccc(C)c2c1Oc1cccc(C(F)(F)F)c1.O=C(O)CCC(=O)O [PQ1, 6-Methoxy-8-[(3-aminopropyl)amino]-4-methyl-5-(3-trifluoromethylphenyloxy) quinoline succinic acid]	Decrease			No effect		0.34 µg/mL	No effect	80-95%	decreased	1.5 fold	20-50%	Increase	increased	Increase
